Source: patent US11753379B2, “Process for forming 2-hydroxypyridine-1-oxide or derivatives thereof” (Clariant International Ltd., priority 2018, dated 2023)
Counter-ions that a name gives are not always drawn. One block for each compound: values may come before it.

How the values were obtained:
[1] = system: Candida albicans DSM 1386; assay: MIC test, efficacy versus microbes; assay type: cell-based; conditions: DSM1386, pH 6.5, Octopirox tested as 5%, Piroctone as 3.98% in butylpolyglycol, read-out: MIC in ppm pH 6.5 (Malassezia Agar)
Method: (§1) A compound according to Formula (2), namely 1-hydroxy-4-methyl-6-(2,4,4-trimethyl pentyl)-2(1H)-pyridone (named as Piroctone in the below table), is tested for efficacy versus various microbes. Comparison is made versus Piroctone Olamine (=Octopirox®).

[2] = system: Malassezia furfur DSM 6170; assay: MIC test, efficacy versus microbes; assay type: cell-based; conditions: DSM6170, pH 6.5, Octopirox tested as 5%, Piroctone as 3.98% in butylpolyglycol, read-out: MIC in ppm pH 6.5 (Malassezia Agar)
Method: as §1

[3] = system: Malassezia globosa ATCC 4889; assay: MIC test, efficacy versus microbes; assay type: cell-based; conditions: ATCC4889, pH 6.5, Octopirox tested as 5%, Piroctone as 3.98% in butylpolyglycol, read-out: MIC in ppm pH 6.5 (Malassezia Agar)
Method: as §1

[4] = system: Malassezia pachydermatis DSM 6172; assay: MIC test, efficacy versus microbes; assay type: cell-based; conditions: DSM6172, pH 6.5, Octopirox tested as 5%, Piroctone as 3.98% in butylpolyglycol, read-out: MIC in ppm pH 6.5 (Malassezia Agar)
Method: as §1

[5] = system: Saccharomyces cerevisiae DSM 70449; assay: MIC test, efficacy versus microbes; assay type: cell-based; conditions: DSM70449, pH 6.5, Octopirox tested as 5%, Piroctone as 3.98% in butylpolyglycol, read-out: MIC in ppm pH 6.5 (Malassezia Agar)
Method: as §1

[6] = Solubility testing in various solvents; assay type: physicochemical; conditions: for Solubility: directly after addition and after standing for a week
Method: A compound according to Formula (2), namely 1-hydroxy-4-methyl-6-(2,4,4-trimethylpentyl)-2(1H)-pyridone, is tested for solubility in various solvents. A 10% (w/w) solution of this compound is tested. The solubility is tested directly after addition as well as after being left to stand for a week.

various microbes = assay: MIC tests overall, comparison versus Piroctone Olamine; assay type: cell-based
Method: as §1

MIC [1]: 500 µg/mL
MIC [2]: 500 µg/mL
MIC [3]: 500 µg/mL
MIC [4]: 500 µg/mL
MIC [5]: 500 µg/mL
SMILES: Cc1cc(CC(C)CC(C)(C)C)n(O)c(=O)c1 (stereo not shown) [Octopirox, monoethanolamine salt of 1-hydroxy-4-methyl-6-(2,4,4-trimethylpentyl)-2(1H)-pyridone]

Comments (solubility observation) ([6]; 10% (w/w) in 1,3-Dioxolane): Not soluble.
Comments (solubility observation) ([6]; 10% (w/w) in 2-Methyltetrahydrofuran): Not soluble.
Comments (solubility observation) ([6]; 10% (w/w) in 3-Pentanone): Not completely soluble, supernatant
Comments (solubility observation) ([6]; 10% (w/w) in Acetone (purity >99%)): Dissolves to a large extend.
Comments (solubility observation) ([6]; 10% (w/w) in Ethanol): Dissolves slowly leading to a clear
Comments (solubility observation) ([6]; 10% (w/w) in Isopropanol): Not completely dissolved,
Comments (solubility observation) ([6]; 10% (w/w) in Methanol): Soluble. Resulting soltuion is clear.
Solubility ([6]; 10% (w/w) solution in 1,3-Dioxolane): no
Solubility ([6]; 10% (w/w) solution in 2-Methyltetrahydrofuran): no
Solubility ([6]; 10% (w/w) solution in 3-Pentanone): no
Solubility ([6]; 10% (w/w) solution in Acetone (purity >99%)): no
Solubility ([6]; 10% (w/w) solution in Ethanol): excellently and yes
Solubility ([6]; 10% (w/w) solution in Isopropanol): no
Solubility ([6]; 10% (w/w) solution in Methanol): excellently and yes
Solubility ([6]; 10% (w/w) solution in tert. Butanol (2.5% H2O)): no
SMILES: Cc1cc(CC(C)CC(C)(C)C)n(O)c(=O)c1 (stereo not shown) [Piroctone, 1-hydroxy-4-methyl-6-(2,4,4-trimethylpentyl)-2(1H)-pyridone]
Mass efficacy better than Piroctone Olamine (various microbes; antimicrobial efficacy per mass): around 20%
Activity in MIC tests compared with Piroctone Olamine (various microbes; conclusion from Experiment 2): same activity in MIC tests at a lower concentration than Piroctone Olamine
